# Biological target: T1, P236L viral reverse transcriptase (Human immunodeficiency virus type 1 group M subtype B, UniProt P04585, P823L)
# T1 construct: P236L viral reverse transcriptase is obtained by PNAS 90: 4713-4717 (1993); made in house
# Experiment: inhibition of viral reverse transcriptase (P236L), cell free assay
# Assay type: biochemical
# Conditions: 30 minutes at 37° C., read-out: IC50 (Table I, P236L)
# From the text: The utility of the pyrimidine-thioalkyl and alkylether anti-AIDS compounds of Formula IA of this invention can be determined by their ability to inhibit viral reverse transcriptase, an enzyme essential for human immunodeficiency virus replication. This enzyme has characteristics which differentiate it from other known cellular polymerases and it is a unique enzyme which is not found in uninfected cells. Viral reverse transcriptase (Wild Type) is found in extracts from bacterial clones prepared according to the procedure described in AIDS Virus Reverse Transcriptase defined by high level expression in Escherichia coli, EMBO J. 6:3133-3137 (1987). P236L viral reverse transcriptase is obtained by PNAS 90: 4713-4717 (1993). Inhibition of this enzyme is determined in a cell free assay which measures the level of radioactive precursors incorporated into DNA. Extracts prepared according to the procedure of Science, 1125-1129 (1981) are incubated in a mixture of inhibitor, 20 mM dithiothreitol, 60 mM sodium chloride, 0.05% NP-40, 10 mM magnesium chloride, 50 mM Tris pH 8.3, 10 μM [^35 S]-labeled deoxynuleoside-5'-triphosphate, 10 μg/ml RNA template (poly rC or poly rG) and 5 μg/ml DNA primer (oligo dG or oligo dT) for 30 minutes at 37° C. Incorporation of radio-labeled percursor is determined by spotting aliquots of the reaction mixture on DE81 paper, washing the papers to remove unincorporated percursor, drying and determining counts. The results (IC50 means the concentration, in μM of drug, required to inhibit the reverse transcriptase activity (P236L and Wild Type) to the extent of 50%) of various assay(s) are combined and reported as % inhibition and/or IC50 (calculated) in Table I (P236L) and Table II (Wild Type).
row,SMILES,IC50
1,"Nc1cc(Cl)nc(SCc2cccc3ccccc23)n1 [Example 58, 4-amino-6-chloro-2-(1-naphthylmethylthio)-pyrimidine]",0.03 µM
2,"Nc1cc(Cl)nc(SCc2ccc3ccccc3c2)n1 [Example 59, 4-amino-6-chloro-2-(2-naphthylmethylthio)-pyrimidine]",0.036 µM
3,"Nc1cc(Cl)nc(SCc2ccc3cc(F)c(F)cc3c2)n1 [Example 60, 4-amino-6-chloro-2-(6,7-difluoro-2-naphthylmethylthio)-pyrimidine]",10 µM
4,"Nc1cc(Cl)nc(SCc2ccc3ccccc3n2)n1 [Example 61, 4-amino-6-chloro-2-(2-quinolinylmethylthio)-pyrimidine]",5 µM
5,"Nc1cc(Cl)nc(SCc2cc3c(cc2Cl)OCO3)n1 [Example 62, 4-amino-6-chloro-2-(6-chloro-5-piperonylmethylthio)-pyrimidine]",0.02 µM
6,"Nc1cc(Cl)nc(SC/C=C/c2ccccc2)n1 [Example 64, 4-amino-6-chloro-2-(E-styrylmethylthio)-pyrimidine]",0.066 µM
7,"Nc1cc(Cl)nc([S+]([O-])Cc2cccc(Br)c2)n1 (centres unmarked) [Example 67, 4-amino-6-chloro-2-(3-bromophenylmethylsulfinyl)pyrimidine]",25 µM
8,"Nc1cc(Cl)nc([S+]([O-])Cc2ccc3ccccc3c2)n1 (centres unmarked) [Example 68, 4-amino-6-chloro-2-(2-naphthylmethylsulfinyl)-pyrimidine]",5 µM
9,"Nc1cc(Cl)nc(S(=O)(=O)Cc2cccc(Br)c2)n1 [Example 69, 4-amino-6-chloro-2-(3-bromophenylmethylsulfonyl)pyrimidine]",20 µM
10,"Clc1cc(N2CCCCC2)nc(SCc2ccccc2)n1 [Example 84, 4-piperido-6-chloro-2-(benzylthio)-pyrimidine]",10 µM
11,"Clc1cc(N2CCCC2)nc(SCc2ccccc2)n1 [Example 85, 4-pyrrolidino-6-chloro-2-(benzylthio)-pyrimidine]",30 µM
12,"Clc1cc(N2CCOCC2)nc(SCc2ccccc2)n1 [Example 86, 4-morpholino-6-chloro-2-(benzylthio)-pyrimidine]",40 µM
13,"CCCNc1cc(Cl)nc(SCc2ccccc2)n1 [Example 87, 4-propylamino-6-chloro-2-(benzylthio)-pyrimidine]",100 µM
14,"NNc1cc(Cl)nc(SCc2ccccc2)n1 [Example 88, 4-hydrazino-6-chloro-2-(benzylthio)-pyrimidine]",5 µM
15,"COc1c(N)nc(SCc2ccc3ccccc3c2)nc1Cl [Example 89, 4-amino-5-methoxy-6-chloro-2-(2-naphthylmethylthio)-pyrimidine]",5 µM
16,"Cc1c(N)nc(SCc2ccc3ccccc3c2)nc1Cl [Example 90, 4-amino-5-methyl-6-chloro-2-(2-naphthylmethylthio)-pyrimidine]",5 µM
17,"Nc1nc(SCc2ccc3ccccc3c2)nc(Cl)c1F [Example 91, 4-amino-5-fluoro-6-chloro-2-(2-naphthylmethylthio)-pyrimidine]",2.5 µM
18,"Nc1nc(SCc2ccccn2)nc(Cl)c1F [Example 92, 4-amino-5-fluoro-6-chloro-2-(2-pyridylmethylthio)-pyrimidine]",1 µM
19,"Nc1ccnc(SCc2cccc(Br)c2)n1 [Example 95, 4-amino-2-(3-bromophenylmethylthio)-pyrimidine]",1 µM
20,"Cc1cccc(CSc2nccc(N)n2)c1 [Example 96, 4-amino-2-(3-methylphenylmethylthio)-pyrimidine]",50 µM

row,SMILES,IC50
1,"Nc1ccnc(SCc2ccc3ccccc3c2)n1 [Example 98, 4-amino-2-(2-naphthylmethylthio)-pyrimidine]",5 µM
2,"Nc1cc(Cl)nc(SCC(=O)c2ccccc2)n1 [Example 100, 4-amino-6-chloro-2-[2-(1-phenyl-1-ethanon)thio]-pyrimidine]",2 µM
3,"CC(C)Oc1cccc(CSc2nc(N)cc(Cl)n2)c1 [Example 109, 4-amino-6-chloro-2-(3-isopropoxyphenylmethylthio)-pyrimidine]",2 µM
4,"Nc1cc(Cl)nc(SCc2cc(Cl)ccn2)n1 [Example 111, 4-amino-6-chloro-2-[2-(4-chloro)-5 pyridylmethylthio]-pyrimidine]",0.03 µM
5,"Nc1cc(Cl)nc(SCc2cccc(Cl)n2)n1 [Example 112, 4-amino-6-chloro-2-[2-(6-chloro)pyridylmethylthio]-pyrimidine]",0.07 µM
6,"Cc1cccc(CSc2nc(N)cc(Cl)n2)n1 [Example 113, 4-amino-6-chloro-2-[2-(6-methyl)pyridylmethylthio]-pyrimidine]",0.09 µM
7,"Cc1ccnc(CSc2nc(N)cc(Cl)n2)c1 [Example 114, 4-amino-6-chloro-2-[2-(4-methyl)pyridylmethylthio]-pyrimidine]",0.01 µM
8,"CCOc1ccnc(CSc2nc(N)cc(Cl)n2)c1 [Example 115, 4-amino-6-chloro-2-[2-(4-ethoxy)pyridylmethylthio]-pyrimidine]",0.05 µM
9,"Cc1cccnc1CSc1nc(N)cc(Cl)n1 [Example 117, 4-amino-6-chloro-2-[2-(3-methyl)pyridylmethylthio]-pyrimidine]",1.05 µM
10,"Cc1ccc(CSc2nc(N)cc(Cl)n2)nc1 [Example 118, 4-amino-6-chloro-2-[2-(5-methyl)pyridylmethylthio]-pyrimidine]",0.07 µM
11,"Nc1cc(Cl)nc(SCc2cc(Br)ccn2)n1 [Example 119, 4-amino-6-chloro-2-[2-(4-bromo)pyridylmethylthio]-pyrimidine]",0.04 µM
12,"COc1cc(C)nc(CSc2nc(N)cc(Cl)n2)c1 [Example 120, 4-amino-6-chloro-2-[2-(4-methoxy-6-methyl)-pyridylmethylthio]-pyrimidine]",0.02 µM
13,"Cc1cc(C)nc(CSc2nc(N)cc(Cl)n2)c1 [Example 121, 4-amino-6-chloro-2-[2-(4,6-dimethyl)pyridylmethylthio]-pyrimidine]",0.01 µM
14,"CCc1ccnc(CSc2nc(N)cc(Cl)n2)c1 [Example 122, 4-amino-6-chloro-2-[2-(4-ethyl)pyridylmethylthio]-pyrimidine]",0.01 µM
15,"COc1ccnc(CSc2nc(N)cc(Cl)n2)c1 [Example 123, 4-amino-6-chloro-2-[2-(4-methoxy)pyridylmethylthio]-pyrimidine]",0.05 µM
16,"CC(C)Cc1ccnc(CSc2nc(N)cc(Cl)n2)c1 [Example 124, 4-amino-6-chloro-2-[2-(4-(2-methylpropyl))pyridylmethylthio]-pyrimidine]",40 µM
17,"Cc1cc(Cl)nc(CSc2nc(N)cc(Cl)n2)c1 [Example 125, 4-amino-6-chloro-2-[2-(6-chloro-4-methyl)pyridylmethylthio]-pyrimidine]",0.05 µM
18,"CC(C)Oc1ccnc(CSc2nc(N)cc(Cl)n2)c1 [Example 126, 4-amino-6-chloro-2-[2-(4-isopropoxy)pyridylmethylthio]-pyrimidine]",0.05 µM
19,"Cc1cc(C)nc(CSc2nc(N)cc(Cl)n2)n1 [Example 127, 4-amino-6-chloro-2-[2-(4,6-dimethyl)pyrimidinylmethylthio]-pyrimidine]",1 µM
20,"N#Cc1ccnc(CSc2nc(N)cc(Cl)n2)c1 [Example 128, 4-amino-6-chloro-2-[2-(4-cyano)pyridylmethylthio]-pyrimidine]",1 µM

# Same assay, conditions: IC50 (Table I, P236L), 30 minutes at 37° C.
row,SMILES,IC50
1,"Nc1cc(Cl)nc(SCc2nc3ccccc3s2)n1 [Example 99, 4-amino-6-chloro-2-(2-benzothiazolomethylthio)-pyrimidine]",0.5 µM

# Source: patent US6043248A, “Alpha-substituted pyrimidine-thioalkyl and alkylether compounds as inhibitors of viral reverse transcriptase” (priority 1997, dated 2000)
